A compilation of properties of binary mixtures (doi:10.1016/j.molliq.2018.07.077)

Assay: xn = mol fraction of the nth substance listed
Settings: 101 kPa

C[n+]1ccn(CCCC#N)c1.O=S(=O)([O-])C(F)(F)F + CC#N
Settings	electrical conductivity [S/m]	viscosity [mPa·s]
288.15 K, x1 = 0.2002	1.88	6.79
288.15 K, x1 = 0.4006	0.55	70.7
288.15 K, x1 = 0.6005	0.175	160
288.15 K, x1 = 0.698	0.07	340
288.15 K, x1 = 0.7996	0.053	579
288.15 K, x1 = 0.9007	0.031	874
288.15 K, x1 = 1	0.023	1182
293.15 K, x1 = 0.1002	2.87	1.51
293.15 K, x1 = 0.2002	2.08	5.95
293.15 K, x1 = 0.2994	1.19	14.1
293.15 K, x1 = 0.4006	0.651	55.5
293.15 K, x1 = 0.5	0.246	85.7
293.15 K, x1 = 0.698	0.093	255
293.15 K, x1 = 0.7996	0.079	417
293.15 K, x1 = 0.9007	0.044	625
293.15 K, x1 = 1	0.033	811
298.15 K, x1 = 0.1002	3.04	1.4
298.15 K, x1 = 0.2002	2.28	5.23
298.15 K, x1 = 0.2994	1.35	12.15
298.15 K, x1 = 0.4006	0.766	44.44
298.15 K, x1 = 0.5	0.315	68.6
298.15 K, x1 = 0.6005	0.278	92
298.15 K, x1 = 0.698	0.124	195.4
298.15 K, x1 = 0.9007	0.061	450
298.15 K, x1 = 1	0.046	581
303.15 K, x1 = 0.1002	3.22	1.3
303.15 K, x1 = 0.2002	2.49	4.65
303.15 K, x1 = 0.2994	1.51	10.55
303.15 K, x1 = 0.4006	0.896	36.24
303.15 K, x1 = 0.5	0.394	54.8
303.15 K, x1 = 0.6005	0.345	72.2
303.15 K, x1 = 0.698	0.163	149
303.15 K, x1 = 0.7996	0.151	230
308.15 K, x1 = 0.1002	3.41	1.21
308.15 K, x1 = 0.2002	2.69	4.18
308.15 K, x1 = 0.4006	1.03	29.81
308.15 K, x1 = 0.5	0.485	44.07
308.15 K, x1 = 0.6005	0.419	57.2
308.15 K, x1 = 0.698	0.213	116.3
308.15 K, x1 = 0.7996	0.193	174
308.15 K, x1 = 0.9007	0.106	245
313.15 K, x1 = 0.1002	3.57	1.13
313.15 K, x1 = 0.2994	1.88	8.05
313.15 K, x1 = 0.4006	1.17	24.79
313.15 K, x1 = 0.6005	0.5	46.5
313.15 K, x1 = 0.698	0.274	91.3
313.15 K, x1 = 0.9007	0.135	185
313.15 K, x1 = 1	0.104	231
318.15 K, x1 = 0.2002	3.08	3.41
318.15 K, x1 = 0.2994	2.08	7.12
318.15 K, x1 = 0.4006	1.32	21.09
318.15 K, x1 = 0.6005	0.593	37.8
318.15 K, x1 = 0.7996	0.288	104.7
318.15 K, x1 = 1	0.131	177.1
323.15 K, x1 = 0.2002	3.28	3.13
323.15 K, x1 = 0.2994	2.29	6.32
323.15 K, x1 = 0.4006	1.48	18.37
323.15 K, x1 = 0.5	0.781	25.17
323.15 K, x1 = 0.698	0.44	61.3
323.15 K, x1 = 0.7996	0.341	83.4
323.15 K, x1 = 0.9007	0.205	104.8
323.15 K, x1 = 1	0.161	141.4
